Consider two substances from patent publication US20090076571A1, “MRI-Guided Photodynamic Therapy For Cancer” (priority 2004, published 2009).

Data set [1] relates to MDA-MB-231 human breast carcinoma xenograft tumor. Briefly: Contrast-enhanced MR imaging of tumor-bearing mice after injection of polymer conjugates. Type of data set: in vivo, female athymic nu/nu mice. The following applies: for Contrast in all tissues including tumor, heart and liver compared to pre-contrast: 5 minutes post injection; for Increase in signal intensity of tumor as compared to precontrast: 2 hours post injection, semi-quantitative evaluation, 6 mice per group. The procedure: Female athymic nu/nu mice were purchased from NCI (Frederick, Md.) at the age of 6 weeks. To generate tumor models, each mouse was injected subcutaneously with 2×10^6 MB-231 cells in 100 μl of culture media mixed with 100 μl of BD MATRIGEL, a solubulized basement membrane preparation extracted from EHS mouse sarcoma, in the flank region. Magnetic resonance imaging and photodynamic therapy studies were carried out at an average tumor size of 25-40 mm^3.
MR imaging was performed on a Siemens Trio 3T MRI scanner. The animals were anesthetized by intra-peritoneal or intra-muscular injection of the anesthetic (mixture of ketamine—80 mg/kg body weight and xylazine—12 mg/kg body weight).
For imaging purposes, the animals were placed in the human wrist coil and pre-contrast images (prior to the injection of the polymer chelate system containing the drug and the contrast agent) were obtained using a 3D FLASH (Fast Low Angle Shot) sequence.
After obtaining the pre-contrast images, the macromolecular complexes were injected at a dose of 0.09 mmol Gd/kg body weight and 6 mg/kg of Mce6 by tail vein injection. Image acquisition was set at 5, 30, 60, 120 minutes and 24 hours post injection. Animal imaging was performed using the multi-phase T1 weighted sequence. The repetition time was about 6 milliseconds to 2 milliseconds, respectively; consistent with the 4 to 8 cm FIV (field of view) and 0.5 mm slice thickness chosen for each animal. The imaging volume was acquired before injection and in rapid succession after injection. Each acquisition required about 30 seconds.
MR imaging. […] FIG. 7 and FIG. 8 show 2D coronal MR images through tumor and heart respectively. The upper panel of FIG. 7 represents mice with Pol1 and the lower panel upper represents mice with Pol2. The upper panel of FIG. 8 represents mice with Pol1 and the lower panel represents mice with Pol2. […] The higher signal in heart may be due to high molecular weight fractions of the control polymer.
Increase in Signal intensity of tumor for both groups as compared to precontrast at 2 hours is 100%. Signal intensity at 18 hours post injection was at least 30% higher than precontrast for both Pol1 and Pol2. Quantitative evaluation of signal intensities using IDL was performed to corroborate the data obtained from semi-quantitative analysis.

Data set [2] can be described thus: T1 relaxivity of polymer complexes. The format is physicochemical. The following applies: Siemens Trio 3T scanner, inversion recovery sequence.
Data set [3] concerns MDA-MB-231 human breast carcinoma xenograft tumor. Briefly: Efficiency of photodynamic therapy (650 nm laser irradiation of tumor). The following applies: for Tumor volume after photodynamic therapy: FIG. 11, irradiation 650 nm, 6 mice per group. The format is in vivo, female athymic nu/nu mice. The method, then:
Molecular weight determination was carried out by Size Exclusion Chromatography (SEC) on an AKTA FPLC system with a Superdex 200/Superose 6 column equipped with UV and refractive index detectors (Amersham Biosciences Corp., Piscataway, N.J.). The FPLC columns were calibrated with poly[N-(2-hydroxypropyl)methacrylamide] standards. ^1H NMR spectra were acquired on a Varian INOVA 400 at 400 MHz at 25° C. ESI-MS spectra were acquired on a PE Sciex API III Mass Spectrometer at the University of Utah Mass Spectrometry and Proteonomic Core Facility. Meso chlorin content was determined on Cary Win UV-Vis spectrometer. Gd content was determined using Inductively Coupled argon Plasma-Optical Emission Spectrometer (ICP-OES) (Perkin Elmer, Norwalk, Conn., Optima 3100XL). T1 relaxivity measurements for the final conjugates were acquired on a Siemens Trio 3T MRI scanner using standard inversion recovery sequence. Photodynamic therapy was carried out via Diode Odyssey laser (650nm) (CAO Group, UT).
Female athymic nu/nu mice were purchased from NCI (Frederick, Md.) at the age of 6 weeks. […] Magnetic resonance imaging and photodynamic therapy studies were carried out at an average tumor size of 25-40 mm^3.
Then the tumor was irradiated, 2 hours and 18 hours post-injection, using light of wavelength 650 nm (Denlaser) with an input of 220 mW/cm^2 energy and 0.5 mm aperture for irradiation. The time of irradiation was 15 minutes. The mice were then kept away from direct light to avoid extraneous irradiation and the reduction in tumor volume was measured.
Efficiency of Photodynamic therapy.

Consider Gd (III)-DOTA-linker-PLGA-Mce6 [Pol1], for which, in data set [1], the “Contrast in all tissues including tumor, heart and liver compared to pre-contrast” value was “increased contrast”; the “Increase in signal intensity of tumor as compared to precontrast” value was 100%. Further, the Relaxivity in data set [2] is on record as 8.46 mM − 1 sec − 1. The “Mice surviving for the time period of the experiment” value in data set [3] (90 days, group of 6 mice) was 4 out of 6. Further, the “Tumor volume after photodynamic therapy” value in data set [3] is “reduction in tumor volume or slowed tumor growth”.
Gd (III)-DOTA-linker-PLGA [Pol2]: in data set [1], the “Contrast in all tissues including tumor, heart and liver compared to pre-contrast” value is “increased contrast”; the “Increase in signal intensity of tumor as compared to precontrast” value stood at 100%. The substance further came in with a Relaxivity in data set [2] of 8.33 mM − 1 sec − 1. For the same substance, the “Tumor volume after photodynamic therapy” value in data set [3] is listed as “rapid increase in tumors”. The “Mice with tumors larger than 10% of the body weight, sacrificed” value in data set [3] (out of 6 mice in the group) stood at 5.
